Measurements published in US20160022769A1, “COMPOSTIONS AND METHODS FOR TREATING RETINAL DISEASE” (RETINAL SOLUTIONS LLC, priority 2013, published 2016).

How the values were obtained:
[1] = biological target: T1, Frizzled receptor subtype 4 (Fz4) (Homo sapiens, UniProt Q9ULV1); details: literature (Xu 2004 and others); cited from earlier work
T1 sequence (Q9ULV1 37-537): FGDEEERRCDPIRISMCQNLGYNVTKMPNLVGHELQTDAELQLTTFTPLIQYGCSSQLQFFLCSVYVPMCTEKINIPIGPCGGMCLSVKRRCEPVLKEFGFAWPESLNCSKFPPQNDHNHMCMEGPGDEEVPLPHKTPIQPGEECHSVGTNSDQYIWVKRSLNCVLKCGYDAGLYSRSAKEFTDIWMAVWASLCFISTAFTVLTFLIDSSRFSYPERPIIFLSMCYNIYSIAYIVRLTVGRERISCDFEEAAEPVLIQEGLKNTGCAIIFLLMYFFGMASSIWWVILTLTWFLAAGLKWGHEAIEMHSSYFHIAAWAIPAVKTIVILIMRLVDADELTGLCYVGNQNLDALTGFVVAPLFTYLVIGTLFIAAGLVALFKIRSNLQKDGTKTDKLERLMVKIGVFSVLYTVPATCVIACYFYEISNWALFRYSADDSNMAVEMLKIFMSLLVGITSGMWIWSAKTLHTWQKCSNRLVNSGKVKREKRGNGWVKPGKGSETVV

[2] = test system: posterior capillary dropout in the retina; assay: oxygen-induced retinopathy (OIR) mouse model, fluorescein angiography of retinal capillary dropout; assay type: in vivo
Excerpt: FIG. 2 is a montage of fluorescein angiograms depicting a retinal phenotype as observed in an OIR mouse, which highlights large areas of posterior capillary dropout in the retina.
Capillary drop out is a very serious problem for many retinal vascular diseases. […] See Trese, M. T. et al., Retinal Physician, April 2011.

In the case of “Norrin: 131 amino acid secreted protein (NCBI NP_000257.1), ligand of Frizzled-4 that activates Wnt signaling”, the “affinity for Fz4” value [1] is listed as “nanomolar affinity”, the “retinal phenotype on fluorescein angiogram” value ([2]; OIR mouse, intravitreal injection, FIG. 4) is listed as “posterior capillary sparing” and the capillary dropout ([2]; murine capillary dropout model, norrin treatment (FIG. 4 vs FIGS. 1-3)) is listed as “reduced or eliminated”.
